Measured values reported in patent US20240228562A1, “NOVEL LIPOCALIN MUTEINS SPECIFIC FOR CONNECTIVE TISSUE GROWTH FACTOR (CTGF)” (PIERIS PHARMACEUTICALS GMBH, priority 2021, published 2024).

Legend:
[1] = test system: CCL-206 lung fibroblasts co-cultured with primary murine Epcam-positive epithelial progenitor cells; assay: Lung organoid formation model; assay type: cell-based; conditions: 14 days treatment; nintedanib 100 nM; SEQ ID NO: 74 at 100 nM
Experimental: The effect of CTGF-targeting lipocalin muteins was analyzed using an organoid model for lung regeneration. In this model, CCL-206 lung fibroblasts are co-cultured with freshly isolated primary murine Epcam-positive epithelial progenitor cells, and the number of formed organoids is analyzed after 14 days. TGF-b1 pre-treatment of CCL-206 fibroblasts leads to an impaired organoid formation and resembles an impairment of lung regeneration as for example observed in lung disease, such as IPF. The impaired formation of organoids can be rescued by treatment with different drugs, such as nintedanib, which is used as a positive control in this model. […] Analysis of organoid numbers confirmed the impairment of organoid formation by TGF-b1 stimulation.

[2] = test system: idiopathic pulmonary fibrosis (IPF); conditions: cited from earlier work; for Decline in lung function in IPF: FDA-approved drugs for IPF; for Tolerability in IPF patients: gastrointestinal and other drug-related tolerability issues
[3] = test system: human melanoma cell lines; conditions: cited from earlier work

Compound	Effect on TGF-b1 impaired organoid formation [1]	Decline in lung function in IPF [2]	Tolerability in IPF patients [2]	Migration of human melanoma cell lines [3]	Disease progression in patients suffering from IPF ([2]; phase 2 clinical trial)
COC(=O)c1ccc2c(c1)NC(=O)/C2=C(\Nc1ccc(N(C)C(=O)CN2CCN(C)CC2)cc1)c1ccccc1 [nintedanib]	partially rescued	slowing down the decline in lung function	not well-tolerated		
Cc1ccc(=O)n(-c2ccccc2)c1 [pirfenidone]		slowing down the decline in lung function	not well-tolerated		
FG-3019/pamrevlumab: anti-CTGF monoclonal antibody in clinical trials				inhibition of the migration	attenuated disease progression
